Measured values as given in ChEMBL document CHEMBL6078630, “Design, synthesis, and bioactivity investigation of novel cyclic lipopeptide antibiotics targeting top-priority multidrug-resistant gram-negative bacteria” (Eur J Med Chem, 2024).
≈ marks a conversion by molar mass, not a printed value. Bridge positions count the residues as written; N and C are the ends. Square brackets hold non-standard residues; d marks the D form. Peptide text beside a SMILES is read from it. * marks the point of attachment. Heptanoyl(6-Me) = CC(C)CCCCC(=O)*; Dab = NCC[C@H](N)C(=O)O; Dap = NC[C@H](N)C(=O)O

Legend:
Klebsiella pneumoniae [1] = assay: Antibacterial activity against carbapenem-resistant Klebsiella pneumoniae clinical isolate KPN+19-15 infected in ICR mouse model assessed as survival rate at 2 mg/kg, iv administered at 1 and 6 hrs post-infection and measured after 7 days relative to control; type: functional; conditions: 168 h, time 7 day
Pseudomonas aeruginosa [2] = assay: Antibacterial activity against carbapenem-resistant Pseudomonas aeruginosa clinical isolate ets33 assessed as inhibition of bacterial growth incubated for 24 hrs by CLSI protocol based broth microdilution method; type: functional
Escherichia coli [3] = assay: Antibacterial activity against carbapenem-resistant Escherichia coli clinical isolate 231016w014 assessed as inhibition of bacterial growth incubated for 24 hrs by CLSI protocol based broth microdilution method; type: functional
[4] = AUC (0 to infinity) in male Sprague-Dawley rat at 3 mg/kg, iv measured after 24 hrs by LC-MS/MS analysis; type: ADME, organism-based; conditions: in vivo
[5] = Volume of distribution in male Sprague-Dawley rat at 3 mg/kg, iv measured after 24 hrs by LC-MS/MS analysis; type: ADME, organism-based; conditions: in vivo
Klebsiella pneumoniae [6] = assay: Antibacterial activity against carbapenem-resistant Klebsiella pneumoniae clinical isolate ets40 assessed as inhibition of bacterial growth incubated for 24 hrs by CLSI protocol based broth microdilution method; type: functional
[7] = Nephrotoxicity against Sprague-Dawley rat assessed as increase in BUN level at 4 mg/kg, iv administered for 7 days by fully automated biochemistry analyzer XR200PLUS; type: toxicity, organism-based; conditions: in vivo, 168 h, time 7 day
[8] = C0 in male Sprague-Dawley rat at 3 mg/kg, iv measured after 24 hrs by LC-MS/MS analysis; type: ADME, organism-based; conditions: in vivo
Acinetobacter baumannii [9] = assay: Antibacterial activity against carbapenem-resistant Acinetobacter baumannii clinical isolate ets30 assessed as inhibition of bacterial growth incubated for 24 hrs by CLSI protocol based broth microdilution method; type: functional
Pseudomonas aeruginosa [10] = assay: Antibacterial activity against carbapenem-resistant Pseudomonas aeruginosa clinical isolate ets84 assessed as inhibition of bacterial growth incubated for 24 hrs by CLSI protocol based broth microdilution method; type: functional
Klebsiella pneumoniae [11] = assay: Antibacterial activity against carbapenem-resistant Klebsiella pneumoniae clinical isolate ets75 assessed as inhibition of bacterial growth incubated for 24 hrs by CLSI protocol based broth microdilution method; type: functional
Acinetobacter baumannii [12] = assay: Antibacterial activity against Acinetobacter baumannii NCTC 13304 (OXA-27) assessed as inhibition of bacterial growth incubated for 16 to 20 hrs by CLSI protocol based broth microdilution method; type: functional; conditions: time 16-20 hrs
Klebsiella pneumoniae [13] = assay: Antibacterial activity against carbapenem-resistant Klebsiella pneumoniae ATCC BAA-1705 infected in ICR mouse model administered intravenously with compound at 1 and 6 hrs post-infection and measured after 7 days; type: functional; conditions: ATCC BAA-1705, 168 h, route iv, time 7 day
Acinetobacter baumannii [14] = assay: Antibacterial activity against carbapenem-resistant Acinetobacter baumannii clinical isolate ets178 assessed as inhibition of bacterial growth incubated for 24 hrs by CLSI protocol based broth microdilution method; type: functional
Pseudomonas aeruginosa [15] = assay: Antibacterial activity against carbapenem-resistant Pseudomonas aeruginosa clinical isolate ets6 assessed as inhibition of bacterial growth incubated for 24 hrs by CLSI protocol based broth microdilution method; type: functional
Klebsiella pneumoniae [16] = assay: Antibacterial activity against carbapenem-resistant Klebsiella pneumoniae ATCC BAA-1705 assessed as inhibition of bacterial growth incubated for 16 to 20 hrs by CLSI protocol based broth microdilution method; type: functional; conditions: time 16-20 hrs
Escherichia coli [17] = assay: Antibacterial activity against carbapenem-resistant Escherichia coli clinical isolate 231112E006B assessed as inhibition of bacterial growth incubated for 24 hrs by CLSI protocol based broth microdilution method; type: functional
Pseudomonas aeruginosa [18] = assay: Antibacterial activity against carbapenem-resistant Pseudomonas aeruginosa clinical isolate ets85 assessed as inhibition of bacterial growth incubated for 24 hrs by CLSI protocol based broth microdilution method; type: functional
Klebsiella pneumoniae [19] = assay: Antibacterial activity against carbapenem-resistant Klebsiella pneumoniae clinical isolate ets45 assessed as inhibition of bacterial growth incubated for 24 hrs by CLSI protocol based broth microdilution method; type: functional
Pseudomonas aeruginosa [20] = assay: Antibacterial activity against Pseudomonas aeruginosa ATCC 27853 assessed as inhibition of bacterial growth incubated for 16 to 20 hrs by CLSI protocol based broth microdilution method; type: functional; conditions: time 16-20 hrs
Lipopolysaccharide (LPS) = assay: Binding affinity to Pseudomonas aeruginosa LPS assessed as dissociation constant by SPR analysis
Pseudomonas aeruginosa [21] = assay: Antibacterial activity against carbapenem-resistant Pseudomonas aeruginosa clinical isolate ets49 assessed as inhibition of bacterial growth incubated for 24 hrs by CLSI protocol based broth microdilution method; type: functional
Pseudomonas aeruginosa [22] = assay: Antibacterial activity against Pseudomonas aeruginosa ATCC 27853 infected in ICR mouse model administered intravenously with compound at 1 and 6 hrs post-infection and measured after 7 days; type: functional; conditions: ATCC 27853, 168 h, route iv, time 7 day
Pseudomonas aeruginosa [23] = assay: Antibacterial activity against carbapenem-resistant Pseudomonas aeruginosa clinical isolate ets83 assessed as inhibition of bacterial growth incubated for 24 hrs by CLSI protocol based broth microdilution method; type: functional
Pseudomonas aeruginosa [24] = assay: Potentiation of rifampicin induced antibacterial activity against Pseudomonas aeruginosa ATCC 27853 assessed as rifampicin MIC at 0.004 microg/ml incubated 24 hrs by cation adjusted Mueller-Hinton broth based method; type: functional; conditions: dose 0.004 µg/ml
Pseudomonas aeruginosa [25] = assay: Antibacterial activity against carbapenem-resistant Pseudomonas aeruginosa clinical isolate ets38 assessed as inhibition of bacterial growth incubated for 24 hrs by CLSI protocol based broth microdilution method; type: functional
Pseudomonas aeruginosa [26] = assay: Antibacterial activity against carbapenem-resistant Pseudomonas aeruginosa clinical isolate ets55 assessed as inhibition of bacterial growth incubated for 24 hrs by CLSI protocol based broth microdilution method; type: functional
Pseudomonas aeruginosa [27] = assay: Antibacterial activity against carbapenem-resistant Pseudomonas aeruginosa clinical isolate ets22 assessed as inhibition of bacterial growth incubated for 24 hrs by CLSI protocol based broth microdilution method; type: functional
Acinetobacter baumannii [28] = assay: Antibacterial activity against carbapenem-sensitive Acinetobacter baumannii clinical isolate 19-1 assessed as inhibition of bacterial growth incubated for 16 to 20 hrs by CLSI protocol based broth microdilution method; type: functional; conditions: time 16-20 hrs
[29] = Half-life in male Sprague-Dawley rat at 3 mg/kg, iv measured after 24 hrs by LC-MS/MS analysis; type: ADME, organism-based; conditions: in vivo
Escherichia coli [30] = assay: Antibacterial activity against Escherichia coli ATCC BAA-2523 infected in ICR mouse model administered intravenously with compound at 1 and 6 hrs post-infection and measured after 7 days; type: functional; conditions: ATCC BAA-2523, 168 h, route iv, time 7 day
Escherichia coli [31] = assay: Antibacterial activity against carbapenem-resistant Escherichia coli ATCC BAA-2340 assessed as inhibition of bacterial growth incubated for 16 to 20 hrs by CLSI protocol based broth microdilution method; type: functional; conditions: time 16-20 hrs
Pseudomonas aeruginosa [32] = assay: Antibacterial activity against carbapenem-resistant Pseudomonas aeruginosa clinical isolate 19-3 assessed as inhibition of bacterial growth incubated for 16 to 20 hrs by CLSI protocol based broth microdilution method; type: functional; conditions: time 16-20 hrs
Pseudomonas aeruginosa [33] = assay: Potentiation of rifampicin induced antibacterial activity against Pseudomonas aeruginosa ATCC 27853 assessed as rifampicin MIC at 0.008 microg/ml incubated 24 hrs by cation adjusted Mueller-Hinton broth based method; type: functional; conditions: dose 0.008 µg/ml
Pseudomonas aeruginosa [34] = assay: Potentiation of rifampicin induced antibacterial activity against Pseudomonas aeruginosa ATCC 27853 assessed as rifampicin MIC at 0.25 microg/ml incubated 24 hrs by cation adjusted Mueller-Hinton broth based method; type: functional; conditions: dose 0.25 µg/ml

CC(C)CCCCC(=O)N[C@@H](CCN)C(=O)N[C@H](C(=O)N[C@@H](CN)C(=O)N[C@H]1CCNC(=O)[C@H]([C@@H](C)O)NC(=O)[C@H](CCN)NC(=O)[C@H](CCN)NC(=O)[C@H]([C@@H](C)O)NC(=O)[C@@H](Cc2ccccc2)NC(=O)[C@H](CCN)NC1=O)[C@@H](C)O ({Heptanoyl(6-Me)}-[Dab]T[Dap][Dab][Dab][dF]T[Dab][Dab]T; lactam 4-C)
survival at 2 mg/kg (Klebsiella pneumoniae [1]): 100%
MIC (Pseudomonas aeruginosa [2]): 0.5 µg/mL (≈ 0.43 µM)
MIC (Escherichia coli [3]): < 0.06 µg/mL
AUC(0-inf) [4]: 8280 ng·h/mL
Vd [5]: 0.78 L/kg
MIC (Klebsiella pneumoniae [6]): 0.25 µg/mL (≈ 0.215 µM)
Activity [7]: Non-toxic
C0 at 24 h [8]: 9810 ng/mL
MIC (Acinetobacter baumannii [9]): < 0.06 µg/mL
MIC (Pseudomonas aeruginosa [10]): 0.5 µg/mL (≈ 0.43 µM)
MIC (Klebsiella pneumoniae [11]): 0.5 µg/mL (≈ 0.43 µM)
MIC (Acinetobacter baumannii [12]): ≤ 0.03 µg/mL
ED50 (Klebsiella pneumoniae [13]): 0.32 mg/kg
MIC (Acinetobacter baumannii [14]): 0.5 µg/mL (≈ 0.43 µM)
MIC (Pseudomonas aeruginosa [15]): 1 µg/mL (≈ 0.86 µM)
MIC (Klebsiella pneumoniae [16]): ≤ 0.03 µg/mL
MIC (Escherichia coli [17]): < 0.06 µg/mL
MIC (Pseudomonas aeruginosa [18]): 0.5 µg/mL (≈ 0.43 µM)
MIC (Klebsiella pneumoniae [19]): 0.25 µg/mL (≈ 0.215 µM)
MIC (Pseudomonas aeruginosa [20]): 0.125 µg/mL (≈ 0.107 µM)
Kd (Lipopolysaccharide (LPS)): 11.5 µM
MIC (Pseudomonas aeruginosa [21]): 0.06 µg/mL (≈ 0.0516 µM)
ED50 (Pseudomonas aeruginosa [22]): 6.38 mg/kg
MIC (Pseudomonas aeruginosa [23]): 0.5 µg/mL (≈ 0.43 µM)
MIC (Pseudomonas aeruginosa [24]): 32 µg/mL
MIC (Pseudomonas aeruginosa [25]): 1 µg/mL (≈ 0.86 µM)
MIC (Pseudomonas aeruginosa [26]): 1 µg/mL (≈ 0.86 µM)
MIC (Pseudomonas aeruginosa [27]): 2 µg/mL (≈ 1.72 µM)
MIC (Acinetobacter baumannii [28]): ≤ 0.03 µg/mL
half-life [29]: 2.22 h
ED50 (Escherichia coli [30]): 1.86 mg/kg
MIC (Escherichia coli [31]): ≤ 0.03 µg/mL
MIC (Pseudomonas aeruginosa [32]): 0.125 µg/mL (≈ 0.107 µM)
MIC (Pseudomonas aeruginosa [33]): 32 µg/mL
MIC (Pseudomonas aeruginosa [34]): ≤ 0.06 µg/mL
